We go through one compound from US5627161A (Memorial Hospital for Cancer and Allied Diseases, priority 1993, dated 1997).

The test system of the experiment is PRPP levels of isolated splenocytes. As to the kind of experiment: PRPP levels of isolated splenocytes incubated in vitro with UDPG or G-6-P. Type of experiment: cell-based, mouse. Conditions: for PRPP levels: soluble fraction of homogenates. On the procedure: Isolation of splenocytes and hepatic cells: The organs were gently teased apart with forceps over a fine tea strainer into PBS or minimum essential culture medium (MEM) containing 0.1M potassium phosphate buffer pH 7.4 with and without added effectors. […] The supernatant solutions were assayed for PRPP.
The vials were shaken vigorously and their radioactivity determined.

In the case of `O=P(O)(O)OC[C@H]1OC(O)[C@H](O)[C@@H](O)[C@@H]1O` (some centres unmarked) [G-6-P, Glucose-6-phosphate], the PRPP levels is, setting by setting: (1.1 mM in MEM) 969 pmoles/mg protein; (5.5 mM in MEM) 1418 pmoles/mg protein; (11 mM in MEM) 1510 pmoles/mg protein; (22 mM in MEM) 1998 pmoles/mg protein. Further, the “effect on intracellular PRPP level of splenocytes as a function of concentration” value (isolated splenocytes, in words) is “not evident below a concentration of 5.5 mM”.
